Common to all, as to details: alternatively SPA-based assay
In assay [1] the target is T1, human αVβ6 (Homo sapiens, UniProt P06756+P18564).
T1 construct: purchased R & D systems 3817-AV
The experiment in a line: human αVβ6 HTRF binding assay. In short, it runs like this:
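Biotinylated recombinant human αVβ6 (1.25 nM final) incubated with FITC-fibronectin (5 nM final) 1 h at RT, then streptavidin-terbium (0.625 nM final) added and left overnight at RT in the dark before HTRF reading. Buffer: 20 mM Tris pH 7.4, 1 mM MgCl2, 1 mM MnCl2, 0.01% Tween 20, 0.01% BSA.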

Assay [2] concerns the target human αVβ1 (Homo sapiens, UniProt P05556+P06756). The experiment in a line: human αVβ1 HTRF binding assay. Here is the method: (§1) All binding assays used the HTRF (homogeneous time resolved fluorescence) technology from Cisbio International, therefore all assays are described as HTRF binding assays. The assay results for the Examples are listed above together with the characterization data. The HTRF binding assays are established for the following integrins: human αVβ6, human αVβ1, human αVβ3, human αVβ5, and human αVβ8. All assays used the following assay buffer: 20 mM Tris, pH 7.4, 1 mM MgCl2, 1 mM MnCl2, 0.01% Tween 20, and 0.01% BSA. Alternatively, a SPA-based assay was used for evaluation of receptor binding.
(§2) The SPA-based assay was carried out according to the protocol and procedures similar to the ones described in the following reference with appropriate modifications to agents and ligands which are readily understood by one skilled in the art: Pachter J A, Zhang R, Mayer-Ezell R., “Scintillation proximity assay to measure binding of soluble fibronectin to antibody-captured αVβ1 integrin” Anal Biochem. 1995 Sep. 1; 230(1):101-7.

In assay [3] the target is human αVβ3 (Homo sapiens, UniProt P05106+P06756). The experiment in a line: human αVβ3 HTRF binding assay. Here is the method: as §1, §2
In assay [4] the target is human αVβ5 (Homo sapiens, UniProt P06756+P18084). In words: human αVβ5 HTRF binding assay. Here is the method:
as §1, §2

The target of assay [5] is human αVβ8 (Homo sapiens, UniProt P06756+P26012). The experiment in a line: human αVβ8 HTRF binding assay. Here is the method:
as §1, §2

Each structure is given as a SMILES string.

The values that follow come from patent publication US11639353B2, “Cyclobutanes- and azetidine-containing mono and spirocyclic compounds as αV integrin inhibitors” (BRISTOL-MYERS SQUIBB COMPANY, priority 2016, dated 2023).

Sequence of human αVβ5 (P06756 31-992 limits assumed): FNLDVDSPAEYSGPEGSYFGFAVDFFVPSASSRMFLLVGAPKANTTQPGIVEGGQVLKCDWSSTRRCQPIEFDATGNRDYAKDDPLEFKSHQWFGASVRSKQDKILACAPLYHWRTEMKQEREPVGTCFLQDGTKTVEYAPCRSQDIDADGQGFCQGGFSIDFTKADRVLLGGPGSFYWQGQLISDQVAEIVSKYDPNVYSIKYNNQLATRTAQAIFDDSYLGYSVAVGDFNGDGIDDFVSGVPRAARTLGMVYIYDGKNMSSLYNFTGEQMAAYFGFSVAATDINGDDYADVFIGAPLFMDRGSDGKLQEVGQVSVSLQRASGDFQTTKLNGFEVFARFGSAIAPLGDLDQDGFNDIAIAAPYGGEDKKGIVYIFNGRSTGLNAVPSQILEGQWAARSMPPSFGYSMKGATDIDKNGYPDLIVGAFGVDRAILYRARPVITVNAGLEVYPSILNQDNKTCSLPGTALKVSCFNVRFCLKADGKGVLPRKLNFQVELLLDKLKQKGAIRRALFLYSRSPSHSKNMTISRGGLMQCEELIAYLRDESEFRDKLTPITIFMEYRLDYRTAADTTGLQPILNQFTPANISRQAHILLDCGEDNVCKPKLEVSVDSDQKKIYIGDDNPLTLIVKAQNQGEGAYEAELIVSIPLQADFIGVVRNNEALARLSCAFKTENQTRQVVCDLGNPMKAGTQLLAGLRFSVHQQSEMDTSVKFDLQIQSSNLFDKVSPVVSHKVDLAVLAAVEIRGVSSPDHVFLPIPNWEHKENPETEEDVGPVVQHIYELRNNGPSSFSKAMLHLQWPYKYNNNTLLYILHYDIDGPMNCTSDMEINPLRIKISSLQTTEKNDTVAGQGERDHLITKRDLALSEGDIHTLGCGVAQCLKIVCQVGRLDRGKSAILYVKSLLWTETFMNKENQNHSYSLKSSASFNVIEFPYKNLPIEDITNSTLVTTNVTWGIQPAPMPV
Sequence of human αVβ5 (P18084 24-719 limits assumed): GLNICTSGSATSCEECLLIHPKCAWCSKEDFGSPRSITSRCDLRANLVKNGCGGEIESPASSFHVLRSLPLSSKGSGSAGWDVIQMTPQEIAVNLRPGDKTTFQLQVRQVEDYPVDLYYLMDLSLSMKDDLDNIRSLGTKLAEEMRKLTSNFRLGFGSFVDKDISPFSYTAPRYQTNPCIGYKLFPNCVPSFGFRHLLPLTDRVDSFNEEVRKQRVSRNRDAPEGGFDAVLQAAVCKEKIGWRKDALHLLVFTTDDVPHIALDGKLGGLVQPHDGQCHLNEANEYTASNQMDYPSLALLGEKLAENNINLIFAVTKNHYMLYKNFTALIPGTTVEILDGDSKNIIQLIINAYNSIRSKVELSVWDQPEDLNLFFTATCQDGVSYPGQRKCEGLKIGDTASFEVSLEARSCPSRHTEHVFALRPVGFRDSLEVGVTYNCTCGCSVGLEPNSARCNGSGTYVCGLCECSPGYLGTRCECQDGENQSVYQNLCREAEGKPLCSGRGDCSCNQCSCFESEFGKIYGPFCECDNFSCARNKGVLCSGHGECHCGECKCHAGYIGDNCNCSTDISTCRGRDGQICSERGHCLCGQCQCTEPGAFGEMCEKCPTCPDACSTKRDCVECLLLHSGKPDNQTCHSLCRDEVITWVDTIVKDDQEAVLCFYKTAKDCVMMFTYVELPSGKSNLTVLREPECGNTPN
T1 sequence (P06756 31-992 limits assumed): as the sequence (P06756 31-992 limits assumed) above
T1 sequence (P18564 22-707 limits assumed): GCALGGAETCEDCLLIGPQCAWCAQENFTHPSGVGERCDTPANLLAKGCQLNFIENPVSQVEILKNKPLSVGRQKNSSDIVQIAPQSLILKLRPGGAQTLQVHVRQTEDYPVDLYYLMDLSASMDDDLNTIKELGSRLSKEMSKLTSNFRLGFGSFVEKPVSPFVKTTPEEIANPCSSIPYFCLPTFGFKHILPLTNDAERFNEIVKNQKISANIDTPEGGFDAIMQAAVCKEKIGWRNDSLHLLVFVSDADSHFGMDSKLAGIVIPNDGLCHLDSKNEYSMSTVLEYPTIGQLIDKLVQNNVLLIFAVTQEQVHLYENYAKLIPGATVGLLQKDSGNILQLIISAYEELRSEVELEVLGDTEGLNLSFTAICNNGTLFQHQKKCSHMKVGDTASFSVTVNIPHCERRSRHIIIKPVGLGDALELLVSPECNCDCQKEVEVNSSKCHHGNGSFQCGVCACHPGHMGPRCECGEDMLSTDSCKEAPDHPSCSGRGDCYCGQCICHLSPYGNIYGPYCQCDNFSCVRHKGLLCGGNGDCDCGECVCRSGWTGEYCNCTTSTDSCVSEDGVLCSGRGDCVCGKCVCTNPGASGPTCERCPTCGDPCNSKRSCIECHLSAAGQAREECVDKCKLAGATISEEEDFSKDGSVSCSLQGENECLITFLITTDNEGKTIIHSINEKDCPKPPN
Sequence of human αVβ1 (P06756 31-992 limits assumed): as the sequence (P06756 31-992 limits assumed) above
Sequence of human αVβ1 (P05556 21-728 limits assumed): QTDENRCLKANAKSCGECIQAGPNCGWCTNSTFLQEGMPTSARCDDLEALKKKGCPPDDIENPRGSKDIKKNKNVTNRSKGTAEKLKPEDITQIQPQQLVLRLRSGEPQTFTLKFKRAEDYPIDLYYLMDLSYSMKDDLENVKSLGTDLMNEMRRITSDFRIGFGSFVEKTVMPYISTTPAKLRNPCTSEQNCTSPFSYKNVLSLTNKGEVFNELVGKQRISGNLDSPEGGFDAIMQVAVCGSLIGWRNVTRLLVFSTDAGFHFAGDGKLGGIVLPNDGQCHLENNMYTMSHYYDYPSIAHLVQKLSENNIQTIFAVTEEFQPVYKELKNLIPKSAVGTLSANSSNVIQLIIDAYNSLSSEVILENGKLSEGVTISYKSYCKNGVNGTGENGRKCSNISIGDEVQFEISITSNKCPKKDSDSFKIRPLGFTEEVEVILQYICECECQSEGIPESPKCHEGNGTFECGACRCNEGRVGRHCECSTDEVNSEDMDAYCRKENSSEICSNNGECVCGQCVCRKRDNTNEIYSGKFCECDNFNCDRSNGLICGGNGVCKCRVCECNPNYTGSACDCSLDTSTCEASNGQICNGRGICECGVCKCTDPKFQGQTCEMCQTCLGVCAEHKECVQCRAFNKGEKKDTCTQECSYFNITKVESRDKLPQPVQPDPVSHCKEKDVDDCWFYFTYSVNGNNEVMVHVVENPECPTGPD
Sequence of human αVβ3 (P06756 31-992 limits assumed): as the sequence (P06756 31-992 limits assumed) above
Sequence of human αVβ3 (P05106 27-718 limits assumed): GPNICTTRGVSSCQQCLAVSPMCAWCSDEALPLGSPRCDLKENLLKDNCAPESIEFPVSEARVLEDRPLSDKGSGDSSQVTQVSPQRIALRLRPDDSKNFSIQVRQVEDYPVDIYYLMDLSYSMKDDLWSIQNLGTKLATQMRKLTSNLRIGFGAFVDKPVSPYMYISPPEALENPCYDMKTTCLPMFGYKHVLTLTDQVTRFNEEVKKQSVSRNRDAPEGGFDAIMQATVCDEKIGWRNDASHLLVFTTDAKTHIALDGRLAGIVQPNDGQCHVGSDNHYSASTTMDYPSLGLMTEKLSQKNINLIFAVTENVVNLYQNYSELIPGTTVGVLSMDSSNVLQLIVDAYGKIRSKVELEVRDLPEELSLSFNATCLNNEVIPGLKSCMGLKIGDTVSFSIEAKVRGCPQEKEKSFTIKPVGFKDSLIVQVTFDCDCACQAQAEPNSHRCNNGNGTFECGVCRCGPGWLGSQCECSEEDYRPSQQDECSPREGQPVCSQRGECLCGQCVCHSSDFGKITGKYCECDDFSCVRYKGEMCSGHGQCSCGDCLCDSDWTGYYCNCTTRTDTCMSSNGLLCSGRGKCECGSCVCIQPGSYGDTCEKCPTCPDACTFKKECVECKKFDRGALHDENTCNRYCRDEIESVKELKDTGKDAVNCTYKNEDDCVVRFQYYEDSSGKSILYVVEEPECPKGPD
Sequence of human αVβ8 (P06756 31-992 limits assumed): as the sequence (P06756 31-992 limits assumed) above
Sequence of human αVβ8 (P26012 43-684 limits assumed): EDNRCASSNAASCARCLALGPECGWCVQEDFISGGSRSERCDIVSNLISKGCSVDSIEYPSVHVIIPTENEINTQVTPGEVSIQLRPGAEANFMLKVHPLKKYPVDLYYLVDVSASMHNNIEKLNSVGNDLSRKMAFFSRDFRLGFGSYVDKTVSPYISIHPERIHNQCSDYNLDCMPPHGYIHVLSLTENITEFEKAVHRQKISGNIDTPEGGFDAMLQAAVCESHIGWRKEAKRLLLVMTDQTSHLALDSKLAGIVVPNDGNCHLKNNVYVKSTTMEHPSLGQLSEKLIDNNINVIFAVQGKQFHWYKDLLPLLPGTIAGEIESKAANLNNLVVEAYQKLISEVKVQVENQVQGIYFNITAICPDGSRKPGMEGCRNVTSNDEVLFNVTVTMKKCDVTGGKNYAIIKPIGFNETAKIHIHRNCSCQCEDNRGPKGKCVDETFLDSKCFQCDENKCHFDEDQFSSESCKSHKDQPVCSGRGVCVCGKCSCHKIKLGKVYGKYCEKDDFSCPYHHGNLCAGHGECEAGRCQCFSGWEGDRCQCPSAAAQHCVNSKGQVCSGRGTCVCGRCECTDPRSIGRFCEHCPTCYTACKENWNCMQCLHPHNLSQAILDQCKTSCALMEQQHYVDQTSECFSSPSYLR

For the compound `COc1ccc([C@H](CC(=O)O)N2CC(CCCCc3ccc4c(n3)NCCC4)C2=O)cn1` (stereo partly drawn) [Example 9, (3S)-3-(6-Methoxypyridin-3-yl)-3-(2-oxo-3-(4-(5,6,7,8-tetrahydro-1,8-naphthyridin-2-yl)butyl)azetidin-1-yl)propanoic acid], the half-maximal inhibitory concentration (IC50) in assay [1] was 1.9 nM; in assay [2], 400 nM; in assay [3], 1.8 nM; in assay [4] it was 1.2 nM; in assay [5], 630 nM.

Take `Cc1cc(C)c(S(=O)(=O)N[C@@H](CNC(=O)C2(F)CN(CCc3ccc4c(n3)NCCC4)C2)C(=O)O)c(C)c1` [Example 13, (S)-3-(3-Fluoro-1-(2-(5,6,7,8-tetrahydro-1,8-naphthyridin-2-yl)ethyl)azetidine-3-carboxamido)-2-(2,4,6-trimethylphenylsulfonamido)propanoic acid]: the IC50 in assay [1] was 0.6 nM; in assay [2], 84 nM; in assay [3] it was 4.1 nM; in assay [4], 2 nM; in assay [5] it was 30 nM.

Turning to `O=C(N[C@@H](CNC(=O)C1(F)CN(CCc2ccc3c(n2)NCCC3)C1)C(=O)O)OCc1ccccc1` [Example 45], the IC50 in assay [1] is 0.5 nM; in assay [2], 28 nM; in assay [3] it was 3.07 nM; in assay [4] it was 0.3 nM; in assay [5], 89 nM.

For the compound `Cc1cc(C)c(S(=O)(=O)N[C@@H](CNC(=O)[C@H]2C[C@H](CCc3ccc4c(n3)NCCC4)C2)C(=O)O)c(C)c1` [Example 52], the IC50 in assay [1] worked out at 0.37 nM; in assay [2], 3.1 nM; in assay [3] it was 2.08 nM; in assay [4] it was 0.2 nM; in assay [5] it was 15 nM.

For the compound `COc1ccc([C@H](CC(=O)O)NC(=O)[C@H]2C[C@H](CCc3ccc4c(n3)NCCC4)C2)cc1F` [Example 53], the IC50 in assay [1] amounted to 0.52 nM; in assay [2], 38 nM; in assay [3], 2.4 nM; in assay [4], 1.8 nM; in assay [5], 130 nM.

Turning to `COc1ccc([C@H](CC(=O)O)NC(=O)C2CC(CCc3ccc4c(n3)NCCC4)C2)cn1` (some centres unmarked) [Example 56], the IC50 in assay [1] was 0.57 nM; in assay [2], 67 nM; in assay [3] it was 2 nM; in assay [4] it was 0.58 nM; in assay [5], 55 nM.

In the case of `O=C(N[C@@H](CNC(=O)C1CC(CCc2ccc3c(n2)NCCC3)C1)C(=O)O)OCc1ccccc1` (some centres unmarked) [Example 58], the IC50 was determined as 0.44 nM in assay [1]; 7.6 nM in assay [2]; 2.4 nM in assay [3]; 0.15 nM in assay [4]; 62 nM in assay [5].

For the compound `COc1ccc([C@H](CC(=O)O)NC(=O)[C@H]2C[C@H](CCc3ccc4c(n3)NCCC4)C2)cn1` [Example 59], the half-inhibitory concentration (IC50) in assay [1] is 0.64 nM; in assay [2], 87.5 nM; in assay [3], 2.7 nM; in assay [4], 0.47 nM; in assay [5], 270 nM.

On to `COc1ccc([C@H](CC(=O)O)NC(=O)N2CC(CCc3ccc4c(n3)NCCC4)C2)cc1F` [Example 63], for which the IC50 in assay [1] worked out at 2.22 nM; in assay [2], 184 nM; in assay [3] it was 2.8 nM; in assay [4] it was 9.4 nM; in assay [5], 410 nM.

Take `COc1ncc([C@H](CC(=O)O)N2CC(CCCCc3ccc4c(n3)NCCC4)C2=O)cn1` (some centres unmarked) [Example 69]: the IC50 in assay [1] stood at 3.27 nM; in assay [2], 1230 nM; in assay [3], 1.79 nM; in assay [4], 0.32 nM; in assay [5], 2000 nM.

For the compound `O=C(N[C@@H](CNC(=O)[C@H]1C[C@@H](CCc2ccc3c(n2)NCCC3)C1)C(=O)O)OCc1ccccc1` [Example 77], the 50% inhibitory concentration (IC50) stood at 0.54 nM in assay [1]; 48 nM in assay [2]; 2 nM in assay [3]; 0.01 nM in assay [4]; 82 nM in assay [5].

For the compound `O=C(N[C@@H](CNC(=O)[C@H]1C[C@H](CCc2ccc3c(n2)NCCC3)C1)C(=O)O)OCc1ccccc1` [Example 78], the IC50 in assay [1] was 0.97 nM; in assay [2], 37 nM; in assay [3], 4.2 nM; in assay [4], 0.42 nM; in assay [5], 38 nM.

Turning to `O=C(O)C[C@H](NC(=O)C1(F)CN(CCc2ccc3c(n2)NCCC3)C1)c1cnc2ccccc2c1` [Example 80], the IC50 in assay [1] amounted to 0.62 nM; in assay [2] it was 900 nM; in assay [3] it was 2.3 nM; in assay [4], 2.1 nM; in assay [5], 49 nM.

Turning to `COc1ncc([C@H](CC(=O)O)NC(=O)[C@H]2C[C@H](CCc3ccc4c(n3)NCCC4)C2)cn1` [Example 82], the IC50 in assay [1] was 0.78 nM; in assay [2], 200 nM; in assay [3], 4.2 nM; in assay [4], 15 nM; in assay [5], 470 nM.

Turning to `COc1ncc([C@H](CC(=O)O)NC(=O)[C@H]2C[C@@H](CCc3ccc4c(n3)NCCC4)C2)cn1` [Example 83], the IC50 in assay [1] was 2 nM; in assay [2], 4000 nM; in assay [3] it was 3.2 nM; in assay [4], 150 nM; in assay [5], 1400 nM.

In the case of `O=C(O)C[C@H](NC(=O)[C@H]1C[C@H](CCc2ccc3c(n2)NCCC3)C1)c1cnc2ccccc2c1` [Example 84], the 50% inhibitory concentration (IC50) was 0.62 nM in assay [1]; 60 nM in assay [2]; 4.7 nM in assay [3]; 41 nM in assay [4]; 84 nM in assay [5].

With `Cc1ncc([C@H](CC(=O)O)NC(=O)[C@H]2C[C@@H](CCc3ccc4c(n3)NCCC4)C2)cn1` [Example 87], the IC50 in assay [1] was 1.1 nM; in assay [2], 2200 nM; in assay [3], 3.8 nM; in assay [4] it was 8.8 nM; in assay [5], 940 nM.

Consider `O=C(O)C[C@H](NC(=O)[C@H]1C[C@H](CCc2ccc3c(n2)NCCC3)C1)c1ccc2c(c1)OCC2` [Example 88], for which the half-inhibitory concentration (IC50) came to 0.87 nM in assay [1]; 150 nM in assay [2]; 2.7 nM in assay [3]; 1 nM in assay [4]; 190 nM in assay [5].

In the case of `O=C(O)C[C@H](NC(=O)N1CC(CCc2ccc3c(n2)NCCC3)C1)c1cnc2ccccc2c1` [Example 96], the IC50 was 1.9 nM in assay [1]; 247 nM in assay [2]; 2.3 nM in assay [3]; 1.3 nM in assay [4]; 120 nM in assay [5].

As to `O=C(O)C[C@H](NC(=O)N1CC(CCc2ccc3c(n2)NCCC3)C1)c1ccc2c(c1)OCC2` [Example 97], the IC50 in assay [1] worked out at 0.64 nM; in assay [2] it was 710 nM; in assay [3], 4.4 nM; in assay [4], 1 nM; in assay [5], 280 nM.

In the case of `O=C(O)C[C@@H](c1cnc2ccccc2c1)N1CC(CCCCc2ccc3c(n2)NCCC3)C1=O` (some centres unmarked) [Example 106], the IC50 in assay [1] came out at 2 nM; in assay [2], 220 nM; in assay [3], 2.5 nM; in assay [4], 5.46 nM; in assay [5] it was 270 nM.

On to `O=C(O)C[C@@H](c1ccc2c(c1)CCO2)N1CC(CCCCc2ccc3c(n2)NCCC3)C1=O` (some centres unmarked) [Example 110], for which the IC50 in assay [1] worked out at 1.4 nM; in assay [2], 210 nM; in assay [3] it was 7.1 nM; in assay [4], 34 nM; in assay [5], 48 nM.
